From US5880146A, “Inhibition of IL-12-induced IFN-γ synthesis by specific bis-phenol compounds as a method of immune modulation” (Fuji ImmunoPharmaceuticals Corporation, priority 1995, dated 1999)

Experiments:
[1] = system: T cell response of human PBMC to allogenic stimulation by Namalwa cells; assay: Mixed Lymphocyte Reaction (proliferation and IFN-γ secretion); format: cell-based; conditions: 6 days; FIGS. 1-3
Protocol: This reaction measures the T cell response to allogenic stimulation by a mismatch of class II histocompatability antigens. This is triggered through the T cell receptor and activates the T cell to secrete and proliferate in response to endogenous IL-2. IFN-γ is also made in response to this stimulation and accumulates in the culture medium. Compounds are tested for their ability to block the proliferation and response to antigenic stimulation as well as their ability to produce IFN-γ as follows. A human B cell ine expressing class II antigen, Namalwa (American Type Culture Collection), is incubated for 2 hr at 37° C. in RPMI-10 containing mitomycin C (50 μg/ml). These cells are washed four times by centrifugation and resuspension (10^6 cells/ml) in SF-RPMI medium and are added to the wells of 96-well plate (50 μl/well) as stimulators. Mitomycin treatment prevents these cells from proliferating in the assay. Fresh PBMC are prepared as described above in example 1, but are not activated with PHA. Instead they are resuspended at 10^6 cells/ml and 100 μl is added per well. Dilutions of test compounds are added (50 μl/well) to give a final volume of 200 μl and the plates are incubated for 6 days at 37° C. During the last 18 hr, ^3 H-thymidine (DuPont-NEN- 1 μCi/well) is added as a measure of cell proliferation, cultures are collected using a cell harvester (Packard), and scintillation fluid is added prior to counting in a Packard Top Count scintillation counter. A sample of medium is also collected for measurement of IFN-γ production prior to the addition of ^3 H-thymidine for use as a negative control.

[2] = system: IL-12 induction of IFN-γ in PHA-activated human PBMC; assay: Screening assay for compounds which inhibit IL-12 induction of IFN-γ (ELISA); format: cell-based; conditions: 5 μg/ml, IL-2 25 U/ml + IL-12 0.5 ng/ml, 48 hr, single test, read-out: % INH of IFNγ
Protocol: Human peripheral blood monocytes (PBMC) were obtained from commercial sources as a leukophoresis from a healthy volunteer and were purified by centrifugation on a Ficoll-Hypaque (Pharmacia) gradient (1700 rpm for 20 min). The "buffy" coat containing the PBMC was diluted with serum-free culture medium (SF-RPMI) to a volume of 50 ml and collected by centrifugation at 1500 rpm for 5 min. Cells were resuspended in cell culture medium containing 10% fetal bovine serum (RPMI-10) and phytohemaglutinin (PHA - 10 μg/ml) at a density of 5×10^6 cells/ml and were cultured for 3 days at 37° C. in a humidified CO2 incubator. The PHA-activated cells were collected by centrifugation, washed three times with an equal volume of SF-RPMI and resuspended in fresh RPMI-10 (1×10^6 cells /ml). Aliquots (100 μl) were dispensed into the wells of multiple 96-well plates to give a final cell number of 10^5 per well. Test compounds, dissolved in dimethyl sulfoxide (DMSO) at 1 mg/ml, were first diluted in culture medium to an intermediate concentration of 20 μg/ml and then were added (50 μwell) to a specific well of the plate for each compound. Stimulation medium (50 μl/well) containing 10% serum, IL-2 and IL-12 was added to final concentrations of 25 U/ml and 0.5 ng/ml, respectively. Control wells receive no IL-2 or IL-12 (negative control) or received both interleukins but no test compound (positive control). The plates were incubated for 48 hr at 37° C. in a CO2 incubator at which time aliquots (20 μl) were removed for analysis of IFN-γ concentration by ELISA. A quantitative ELISA was developed by coating 96-well plates with an mouse monoclonal antibody against human IFN-γ, 1 μg/ml in phosphate buffered saline (PBS) (Pestka Biological Laboratories), overnight at 4° C. Unbound antibody was washed off by washing three times with PBS. Non-specific antibody binding was blocked with a solution of 1% bovine serum albumin (BSA) and 1% goat serum in PBS (150 μl/well) which was incubated for 2 hr at 37° C. After washing the blocked plates four times with PBS, test samples and dilutions of the IFN-γ standard are added in a final volume of 100 μl/well. Following an overnight incubation at 4° C., the plates are washed four times with PBS, and a polyclonal rabbit antiserum against human IFN-γ (1/10000 dilution--Petska Biological Laboratories) is added. After an additional incubation for 1 hr at 37° C. and four washes with PBS, a polyclonal donkey anti-rabbit detecting antibody, conjugated to horseradish peroxidase (1/700 dilution--Petska Biological Laboratories) is added for 1 hr at 37° C. The plates are then washed four times with PBS and 100 μl of K-blue substrate E(ILISA Technologies, Neogen Corp.) is added until the color in the wells containing the standard curve is sufficiently developed, at which time 100 μl of "Red-stop" solution (ELISA Technologies) is added. The absorbance of the solution within each well of the plate is then read at 650 nm using an ELISA plate reader (Dynatech MR7000). The amount of IFN-γ is calculated by comparing the optical density of the test sample with a standard curve derived from the dilutions of the control IFN-y. The amount of IFN-γ that is induced in the presence of both IL-2 and IL-12 generally ranges from 1200-2000 pg/ml while the amount produced in the absence of IL-12 is generally less than 50 pg/ml. Experimental data are shown in Table 2 which discloses a) the percent inhibition of IFNγ production, relative to a […], when the cells have been treated with a bis-compound at a final concentration of 5 μg/ml of the listed bis-compound (%INH or IFNγ) and b) the percent of cells which are viable after the treatment with 5 μg/ml of the various bis-compounds, determined by adding MTS to the media (% Viability). MTS is a chemical chromophore that is metabolized in the mitochondria of viable cells to produce a color which increases in intensity in proportion to the numbers of viable cells. […]

[3] = Cell viability (MTS) after treatment with bis-compound; format: cell-based; conditions: human, pha-activated pbmc, 5 μg/ml
Protocol: Human peripheral blood monocytes (PBMC) were obtained from commercial sources as a leukophoresis from a healthy volunteer and were purified by centrifugation on a Ficoll-Hypaque (Pharmacia) gradient (1700 rpm for 20 min). The "buffy" coat containing the PBMC was diluted with serum-free culture medium (SF-RPMI) to a volume of 50 ml and collected by centrifugation at 1500 rpm for 5 min. Cells were resuspended in cell culture medium containing 10% fetal bovine serum (RPMI-10) and phytohemaglutinin (PHA - 10 μg/ml) at a density of 5×10^6 cells/ml and were cultured for 3 days at 37° C. in a humidified CO2 incubator. The PHA-activated cells were collected by centrifugation, washed three times with an equal volume of SF-RPMI and resuspended in fresh RPMI-10 (1×10^6 cells /ml). Aliquots (100 μl) were dispensed into the wells of multiple 96-well plates to give a final cell number of 10^5 per well. Test compounds, dissolved in dimethyl sulfoxide (DMSO) at 1 mg/ml, were first diluted in culture medium to an intermediate concentration of 20 μg/ml and then were added (50 μwell) to a specific well of the plate for each compound. Stimulation medium (50 μl/well) containing 10% serum, IL-2 and IL-12 was added to final concentrations of 25 U/ml and 0.5 ng/ml, respectively. Control wells receive no IL-2 or IL-12 (negative control) or received both interleukins but no test compound (positive control). The plates were incubated for 48 hr at 37° C. in a CO2 incubator at which time aliquots (20 μl) were removed for analysis of IFN-γ concentration by ELISA. A quantitative ELISA was developed by coating 96-well plates with an mouse monoclonal antibody against human IFN-γ, 1 μg/ml in phosphate buffered saline (PBS) (Pestka Biological Laboratories), overnight at 4° C. Unbound antibody was washed off by washing three times with PBS. Non-specific antibody binding was blocked with a solution of 1% bovine serum albumin (BSA) and 1% goat serum in PBS (150 μl/well) which was incubated for 2 hr at 37° C. After washing the blocked plates four times with PBS, test samples and dilutions of the IFN-γ standard are added in a final volume of 100 μl/well. Following an overnight incubation at 4° C., the plates are washed four times with PBS, and a polyclonal rabbit antiserum against human IFN-γ (1/10000 dilution--Petska Biological Laboratories) is added. After an additional incubation for 1 hr at 37° C. and four washes with PBS, a polyclonal donkey anti-rabbit detecting antibody, conjugated to horseradish peroxidase (1/700 dilution--Petska Biological Laboratories) is added for 1 hr at 37° C. The plates are then washed four times with PBS and 100 μl of K-blue substrate E(ILISA Technologies, Neogen Corp.) is added until the color in the wells containing the standard curve is sufficiently developed, at which time 100 μl of "Red-stop" solution (ELISA Technologies) is added. The absorbance of the solution within each well of the plate is then read at 650 nm using an ELISA plate reader (Dynatech MR7000). The amount of IFN-γ is calculated by comparing the optical density of the test sample with a standard curve derived from the dilutions of the control IFN-y. […] MTS is a chemical chromophore that is metabolized in the mitochondria of viable cells to produce a color which increases in intensity in proportion to the numbers of viable cells. The absorbance of the cell culture can be compared to control cultures in order to determine the percent viability.

[4] = Toxicity of bis-compounds after single systemic dose; format: in vivo; conditions: mouse, in vivo, 16% cremaphor, conc. sol. 10 mg/ml, single dose
[5] = system: mice; assay: as above; format: in vivo; conditions: 16% cremaphor, 10 mg/ml

Row | Compound | inhibition of IFN-γ secretion versus cell proliferation (in words) [1] | inhibition at 5 µg/mL [2] [%] | viability [3] [%] | LD50 ([4]; IV, 20% DMSO) [mg/kg] | Results (Dead/Alive) ([5]; 80 mg/kg IV, 20% DMSO) | LD50 ([4]; iv, 20% DMSO) [mg/kg] | Results (Dead/Alive) ([5]; 100 mg/kg IV, 20% DMSO) | Results (Dead/Alive) ([5]; 150 mg/kg IV, 20% DMSO) | LD50 ([4]; IV, 20% EGME) [mg/kg] | Results (Dead/Alive) ([5]; 100 mg/kg IV, 20% EGME) | Results (Dead/Alive) ([5]; 150 mg/kg IV, 20% EGME) | LD50 ([4]; iv, 20% EGME) [mg/kg]
1 | Nc1nc2nn[nH]c2c(=O)[nH]1 [Compound 8-azaguanine, 8-azaguanine, reference compound] | general immunosuppressant | – | – | – | – | – | – | – | – | – | – | –
2 | CCCCC(C)(c1cc(C)c(O)c(C)c1)c1cc(C)c(O)c(C)c1 [Compound 52782] | – | 102 | 116 | < 80 | Dead | – | – | – | – | – | – | –
3 | CCC(C)(c1ccc(O)c(C)c1)c1ccc(O)c(C)c1 [Compound 54003] | – | 101 | 85 | – | – | 100 to 150 | Alive | Dead | – | – | – | –
4 | CCCCCCC(c1cc(C)cc(C)c1O)c1cc(C)cc(C)c1O [Compound 54015] | – | 96 | 34 | – | Alive | > 80 | – | – | – | – | – | –
5 | Cc1cc(C(CCc2ccccc2)c2cc(C)cc(C(C)(C)C)c2O)c(O)c(C(C)(C)C)c1 [Compound 54016] | – | 26 | 98 | – | – | > 150 | Alive | Alive | – | – | – | –
6 | CCCCCC(c1cc(C)cc(C(C)(C)C)c1O)c1cc(C)cc(C(C)(C)C)c1O [Compound 54018] | – | 55 | 92 | – | – | – | – | – | < 100 | Dead | Dead | –
7 | CCCCCC(c1cc(C)cc(C)c1O)c1cc(C)cc(C)c1O [Compound 54019] | – | 77 | 101 | – | – | 100 to 150 | Alive | Dead | – | – | – | –
8 | CCCCC(c1cc(C)cc(C(C)(C)C)c1O)c1cc(C)cc(C(C)(C)C)c1O [Compound 54020] | – | 69 | 95 | – | – | – | – | – | – | Alive | Dead | 100 to 150
9 | CCCC(c1cc(C)c(O)c(C)c1)c1cc(C)c(O)c(C)c1 [Compound 54044] | – | 98 | 92 | – | – | > 150 | Alive | Alive | – | – | – | –
10 | CCCC(C)(c1cc(C)c(O)c(C)c1)c1cc(C)c(O)c(C)c1 [Compound 54064] | – | 79 | 112 | – | – | 100 to 150 | Alive | Dead | – | – | – | –
